We go through 8 molecules from PubChem BioAssay (NCI).

Structures are written as SMILES.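 Compound exposure: 48 hours, 5 concentrations, 96-well plates. Definition used: TGI = concentration required for complete inhibition of growth.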

What all share (assay): NCI tumour cell line growth inhibition, 48 h
The subject of assay [1] is COLO 205 colon.
The test system of assay [2] is HCT-116 colon.
Assay [3] concerns HOP-62 NSCLC.
The test system of assay [4] is HS 578T breast.
Assay [5] relates to M14 melanoma.
Assay [6] deals with MDA-MB-435.
Assay [7] relates to MDA-N.
Assay [8] deals with NCI-H23 lung.
Assay [9] deals with NCI-H522 lung.
Assay [10] deals with OVCAR-5 ovarian.
Assay [11] concerns PC-3 prostate.
Assay [12] deals with SF-295 CNS.
The subject of assay [13] is SF-539 CNS.
For assay [14], the system named is SK-MEL-28 melanoma.
For assay [15], the system named is SK-OV-3 ovarian.
For assay [16], the system named is UACC-257 melanoma.
Assay [17] concerns UACC-62 melanoma.
The test system of assay [18] is SR leukemia.
Assay [19] has as its system HL-60(TB) leukemia.

As to `Cc1ccc(-n2cnc3c(N)nc(N)nc32)cc1`, the TGI in [1], in assay [2], in assay [3], in [4], in assay [5] and in [6] was greater than 100 µM throughout. The TGI in assay [7], in assay [8], in assay [9], in assay [10], in assay [11] and in [12] was greater than 100 µM in each case. The TGI in assay [13], in [14], in assay [15], in assay [16] and in assay [17] was greater than 100 µM in each case.

Consider `CC(C)(C)[Si](C)(C)O[C@@H](C(=O)OC1C=CCCC1)[C@@H](NC(=O)c1ccccc1)c1ccccc1` (some centres not stated), for which the TGI in assay [1] was 76.8 µM; in assay [2] it was greater than 100 µM; in assay [3], greater than 100 µM; in [4], greater than 100 µM; in assay [6] it was greater than 100 µM; in [7] it was greater than 100 µM. The TGI in assay [8] is greater than 100 µM; in [9], 63.6 µM; in [10], greater than 100 µM; in assay [11], greater than 100 µM; in assay [12] it was 65.1 µM; in assay [13], greater than 100 µM. The TGI in assay [14] was greater than 100 µM; in [15] it was greater than 100 µM; in assay [18] it was 37.9 µM; in [16], greater than 100 µM; in [17], greater than 100 µM.

For the molecule `CC(=O)C(I(OS(=O)(=O)c1ccc(C)cc1)c1ccccc1)=P(c1ccccc1)(c1ccccc1)c1ccccc1`, the TGI is 31.4 µM in assay [1]; 50.2 µM in assay [2]; 76.3 µM in assay [19]; 59.6 µM in assay [3]; 68.8 µM in assay [4]; 59.3 µM in assay [5]. The TGI is 32.4 µM in assay [6]; 33.2 µM in [7]; 42.7 µM in assay [8]; 24.5 µM in assay [9]; 60.2 µM in [10]; greater than 100 µM in assay [11]. In addition, the TGI in assay [12] is greater than 100 µM; in assay [13], 39.1 µM; in assay [14], 36.4 µM; in assay [15], greater than 100 µM; in assay [16] it was 59 µM; in [17], 17 µM.

Turning to `Cc1csc2nc3c(cnn3C)c(=S)n12`, the TGI in assay [1] is greater than 10 µM; in [2], greater than 100 µM; in [3] it was greater than 100 µM; in [4], greater than 100 µM; in assay [5], greater than 100 µM; in assay [6], greater than 100 µM. For the same molecule, the TGI was greater than 100 µM in [7]; greater than 100 µM in assay [8]; 41.9 µM in [9]; greater than 100 µM in assay [10]; greater than 100 µM in assay [11]; greater than 100 µM in assay [12]. Also, the TGI in [13], in assay [14], in assay [15], in assay [18], in assay [16] and in [17] was greater than 100 µM each time.

In the case of `O=C1CC(=O)NC(=NN2C(=O)/C(=C/C(=O)c3ccco3)N=C2c2ccccc2)N1`, the TGI in assay [1], in assay [2], in assay [3], in assay [4], in assay [5] and in [6] was greater than 100 µM throughout. Also, the TGI is greater than 100 µM in assay [7]; greater than 100 µM in assay [8]; 79.8 µM in assay [9]; greater than 100 µM in assay [10]; greater than 100 µM in assay [11]; greater than 100 µM in assay [12]. Further, the TGI in assay [13] is greater than 100 µM; in [14], greater than 100 µM; in assay [15] it was greater than 100 µM; in assay [18] it was 41.3 µM; in assay [16], greater than 100 µM; in assay [17], greater than 100 µM.

For `O=c1c(C=Nc2ccccc2Cl)c(O)n(-c2ccccc2)c(=O)n1-c1ccccc1`, the TGI in assay [1], in assay [2], in assay [3], in assay [4], in [5] and in assay [6] was greater than 100 µM each time. The TGI in assay [7], in assay [8], in assay [9], in assay [10], in assay [11] and in assay [12] was greater than 100 µM each time. Moreover, the TGI in [13], in assay [15], in assay [16] and in assay [17] was greater than 100 µM in each case.

With `ClC1(Cl)C(c2ccccc2)C1c1ccccc1` (configuration not stated), the TGI is greater than 100 µM in [1]; greater than 100 µM in assay [2]; greater than 100 µM in assay [3]; greater than 100 µM in assay [4]; 90.7 µM in [5]; 68.6 µM in assay [6]. In addition, the TGI is 35.2 µM in [7]; 76.8 µM in assay [8]; greater than 100 µM in assay [10]; greater than 100 µM in assay [11]; 82.3 µM in [12]; greater than 100 µM in assay [14]. Besides, the TGI is 55.7 µM in assay [15], 55.4 µM in assay [18], greater than 100 µM in assay [16] and greater than 100 µM in assay [17].

As to `CN(C)c1ccc(/C=N\NC(=O)c2ccccc2Nc2ccccc2C(=O)N/N=C/c2ccc(N(C)C)cc2)cc1`, the TGI in [1] was greater than 100 µM; in assay [2], greater than 100 µM; in assay [3] it was greater than 100 µM; in assay [4], greater than 100 µM; in [5], 95.9 µM; in [6] it was greater than 100 µM. Also, the TGI in assay [7] was greater than 100 µM; in assay [8], greater than 100 µM; in assay [10], greater than 100 µM; in assay [11], greater than 100 µM; in assay [12], greater than 100 µM; in assay [13], 81.9 µM. The TGI in assay [14], in assay [15], in assay [18], in assay [16] and in assay [17] was greater than 100 µM each time.
